The text below walks through data of paper PMC11089511 (Journal of Medicinal Chemistry, 2024).

The conditions of series [1]: cited from earlier work.
For series [2] the following is noted: cited from earlier work. The source holds these as a separate data set.
For series [3] the following is noted: cited from earlier work. This is another data set of the same source.
In series [4] the target is wild-type TTR in human plasma (Homo sapiens, UniProt P02766). Put plainly: Ex vivo competitive binding assay using a fluorogenic probe in human plasma. As to conditions: for binding to TTR in human plasma (probe fluorescence intensity), in words: 6 h of incubation, Figure 3 / Figures S2–S4.

Consider `O=C(O)c1ccc2nc(-c3cc(Cl)cc(Cl)c3)oc2c1` [Compound 1, Tafamidis], for which the “aqueous solubility pH 6.8” value in series [1] is reported as above 100 μM. Also, in series [2], the PAMPA permeability was >50 ×10^–6 cm/s. The “hepatic microsome stability in rats” value in series [3] is 38.7 mL/min/kg.
As to `CCc1oc2ccc(Cl)c(Cl)c2c1C(=O)c1cc(I)c(O)c(I)c1` [Compound 18, (4,5-Dichloro-2-ethylbenzofuran-3-yl)(4-hydroxy-3,5-diiodophenyl)methanone], the “binding to TTR in human plasma (probe fluorescence intensity), in words” value in series [4] is given as “remarkably reduced compared to that of 7”.
The same measure, in the same setting: under `CCc1oc2c(Cl)c(Cl)ccc2c1C(=O)c1cc(I)c(O)c(I)c1` [Compound 19, (6,7-Dichloro-2-ethylbenzofuran-3-yl)(4-hydroxy-3,5-diiodophenyl)methanone] stands “remarkably reduced compared to that of 7”; under `CCc1sc2ccccc2c1C(=O)c1cc(I)c(O)c(I)c1` [Compound 14, (2-Ethylbenzo[b]thien-3-yl)(4-hydroxy-3,5-diiodophenyl)methanone], “weaker binding compared to 3”.
`CCc1oc2ccccc2c1C(=O)c1cc(I)c(O)c(I)c1` [Compound 3, benziodarone]: the “fluorescence intensity of the probe relative to the control (DMSO)” value in series [4] (compound 20 μM, human plasma with 5 μM TTR, Figure 2) is listed as “approximately 30%”.
